Where a name gives a salt, the structure may show the parent alone. Read-outs that look alike come from different tables or passages of the source.
Biological target: T1, human AspH (His6-AspH315–758) (Homo sapiens, UniProt Q12797)
T1 construct: N-Terminally His6-tagged human AspH315–758 (His6-AspH315–758) was produced in Escherichia coli BL21 (DE3) cells; made in house; host or cells: Escherichia coli BL21 (DE3), pET-28a(+) vector
T1 sequence (Q12797 315-758): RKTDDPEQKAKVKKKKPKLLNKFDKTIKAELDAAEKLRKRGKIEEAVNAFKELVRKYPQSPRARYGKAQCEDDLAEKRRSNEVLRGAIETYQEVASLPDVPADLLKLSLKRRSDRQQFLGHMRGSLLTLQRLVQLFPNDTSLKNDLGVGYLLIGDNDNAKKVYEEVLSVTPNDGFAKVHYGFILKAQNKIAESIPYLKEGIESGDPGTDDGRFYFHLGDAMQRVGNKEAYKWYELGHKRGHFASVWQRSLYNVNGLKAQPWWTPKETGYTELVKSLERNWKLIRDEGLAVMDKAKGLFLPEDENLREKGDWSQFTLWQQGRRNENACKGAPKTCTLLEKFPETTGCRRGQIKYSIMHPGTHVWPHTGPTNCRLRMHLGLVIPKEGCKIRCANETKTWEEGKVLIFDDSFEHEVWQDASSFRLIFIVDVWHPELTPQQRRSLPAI
Experiment: SPE-MS AspH inhibition assay (hFX-CP101-119 substrate hydroxylation)
Assay type: biochemical

[1] = AspH-inhibitor screening, 384-well Plate 1
[2] = AspH-inhibitor screening, 384-well Plate 1, substrate conversion
[3] = AspH-inhibitor screening, Plate 1-duplicate
[4] = AspH-inhibitor screening, Plate 1-duplicate, substrate conversion

| Structure (SMILES) | Plate 1 (% inhibition) [1] [%] | Plate 1 (% conversion) [2] [%] | Plate 1-duplicate (% inhibition) [3] [%] | Plate 1-duplicate (% conversion) [4] [%] | Plate 1 (% conversion) [%] | Plate 1 (% inhibition) [%] | Plate 1-duplicate (% conversion) [%] | Plate 1-duplicate (% inhibition) [%] |
| --- | --- | --- | --- | --- | --- | --- | --- | --- |
| COc1cc(Nc2c(C#N)cnc3cc(OCCCN4CCN(C)CC4)c(OC)cc23)c(Cl)cc1Cl [Bosutinib] | -48.53 | 72.16 | -50.33 | 77.00 | – | – | – | – |
| Cc1cc2c(F)c(Oc3ncnn4cc(OC[C@@H](C)O)c(C)c34)ccc2[nH]1 [Brivanib] | 6.97 | 46.53 | 3.72 | 50.20 | – | – | – | – |
| CS(=O)(=O)OCCCCOS(C)(=O)=O [Busulfan] | 14.61 | 43.00 | 8.69 | 47.73 | – | – | – | – |
| CC[C@H](Nc1ncnc2[nH]cnc12)c1nc2cccc(F)c2c(=O)n1-c1ccccc1 [CAL-101] | 5.28 | 47.31 | 3.08 | 50.52 | – | – | – | – |
| CN1CCN(c2ccc3nc(-c4c(N)c5c(F)cccc5[nH]c4=O)[nH]c3c2)CC1 [CHIR-258 (Dovitinib)] | -15.11 | 56.73 | -6.96 | 55.49 | – | – | – | – |
| CC(C)C[C@@H](C(=O)N[C@H](C(=O)OC1CCCC1)c1ccccc1)[C@H](O)C(=O)NO [CHR 2797_Tosedostat] | -9.77 | 54.26 | -16.99 | 60.47 | – | – | – | – |
| CC(=O)Nc1ccc(C(=O)Nc2ccccc2N)cc1 [CI-994_Tacedinaline] | 4.32 | 47.76 | 4.57 | 49.78 | – | – | – | – |
| O=C(O)CCCCC(CCSCc1ccccc1)SCc1ccccc1 (stereo not drawn) [CPI-613] | -2.25 | 50.79 | -2.45 | 53.26 | – | – | – | – |
| C#Cc1cccc(Nc2ncnc3cc(OC)c(OCCCCCCC(=O)NO)cc23)c1 [CUDC-101] | 70.67 | 17.12 | 72.15 | 16.26 | – | – | – | – |
| N#CCNC(=O)c1ccc(-c2ccnc(Nc3ccc(N4CCOCC4)cc3)n2)cc1 [CYT-387_Momelotinib] | 5.72 | 47.11 | 4.84 | 49.64 | – | – | – | – |
| CO[C@H]1C(=O)[C@]2(C)[C@@H](OC)C[C@H]3OC[C@@]3(OC(C)=O)[C@H]2[C@H](OC(=O)c2ccccc2)[C@]2(O)C[C@H](OC(=O)[C@H](O)[C@@H](NC(=O)OC(C)(C)C)c3ccccc3)C(C)=C1C2(C)C [Cabazitaxel] | -8.77 | 53.80 | -20.49 | 62.20 | – | – | – | – |
| CC[C@@]1(O)C(=O)OCc2c1cc1n(c2=O)Cc2cc3ccccc3nc2-1 [Camptothecin] | 4.52 | 47.66 | 4.34 | 49.89 | – | – | – | – |
| C=CC(=O)Nc1cc2c(Nc3ccc(F)c(Cl)c3)ncnc2cc1OCCCN1CCOCC1 [Canertinib] | -58.69 | 76.85 | -55.96 | 79.80 | – | – | – | – |
| CCCCCOC(=O)Nc1nc(=O)n([C@@H]2O[C@H](C)[C@@H](O)[C@H]2O)cc1F [Capecitabine] | 3.89 | 47.95 | 10.65 | 46.76 | – | – | – | – |
| N.N.O=C([O-])C1(C(=O)[O-])CCC1.[Pt+2] [Carboplatin] | 3.32 | 48.22 | 9.11 | 47.52 | – | – | – | – |
| CC(C)C[C@H](NC(=O)[C@H](CCc1ccccc1)NC(=O)CN1CCOCC1)C(=O)N[C@@H](Cc1ccccc1)C(=O)N[C@@H](CC(C)C)C(=O)[C@@]1(C)CO1 [Carfilzomib] | -2.16 | 50.75 | -9.02 | 56.51 | – | – | – | – |
| O=NN(CCCl)C(=O)NCCCl [Carmustine] | 1.59 | 49.02 | 7.94 | 48.11 | – | – | – | – |
| Cc1ccc(-c2cc(C(F)(F)F)nn2-c2ccc(S(N)(=O)=O)cc2)cc1 [Celecoxib] | -8.28 | 53.57 | -15.35 | 59.65 | – | – | – | – |
| Cc1cc(Nc2ncc(Cl)c(Nc3ccccc3S(=O)(=O)C(C)C)n2)c(OC(C)C)cc1C1CCNCC1 [Ceritinib] | -42.78 | 69.51 | -39.63 | 71.70 | – | – | – | – |
| O=C(O)CCCc1ccc(N(CCCl)CCCl)cc1 [Chlorambucil] | 2.87 | 48.43 | 1.52 | 51.29 | – | – | – | – |
| CCN(CC)CCCC(C)Nc1ccnc2cc(Cl)ccc12 (stereo not drawn) [Chloroquine diphosphate] | – | – | – | – | 43.64 | 13.23 | 46.45 | 11.28 |
| N.N.[Cl][Pt][Cl] [Cisplatin aq] | 26.89 | 37.33 | 26.45 | 38.92 | – | – | – | – |
| Nc1nc(Cl)nc2c1ncn2[C@H]1C[C@H](O)[C@@H](CO)O1 [Cladribine] | 3.47 | 48.15 | 3.70 | 50.21 | – | – | – | – |
| O=P1(N(CCCl)CCCl)NCCCO1 (stereo not drawn) [Clafen (Cyclophosphamide, Endoxan)] | – | – | – | – | 48.48 | 2.76 | 50.72 | 2.67 |
| Nc1nc(Cl)nc2c1ncn2[C@@H]1O[C@H](CO)[C@@H](O)[C@@H]1F [Clofarabine] | 6.71 | 46.65 | 3.66 | 50.22 | – | – | – | – |
| CCN(CC)CCOc1ccc(C(=C(Cl)c2ccccc2)c2ccccc2)cc1 [Clomifene citrate] | 59.99 | 22.05 | 68.69 | 17.97 | – | – | – | – |
| O=C(c1ccc(F)c(F)c1Nc1ccc(I)cc1F)N1CC(O)([C@@H]2CCCCN2)C1 [Cobimetinib] | -5.94 | 52.49 | -8.08 | 56.05 | – | – | – | – |
| CC1(COc2ccc3c(c2)ncn3-c2ccc3cccc(N4CCC(N)CC4)c3n2)COC1 [Crenolanib] | -2.58 | 50.94 | -3.79 | 53.92 | – | – | – | – |
| C[C@@H](Oc1cc(-c2cnn(C3CCNCC3)c2)cnc1N)c1c(Cl)ccc(F)c1Cl [Crizotinib] | -6.35 | 52.68 | -0.27 | 52.18 | – | – | – | – |
| O=P1(N(CCCl)CCCl)NCCCO1 (stereo not drawn) [Cyclophosphamide] | – | – | – | – | 44.96 | 10.37 | 48.17 | 7.81 |

From paper PMC7588595, “Small-molecule active pharmaceutical ingredients of approved cancer therapeutics inhibit human aspartate/asparagine-β-hydroxylase” (Bioorganic & Medicinal Chemistry, 2020)
